In article PMC11945475, “Nasal Administration of a Nanoemulsion Based on Methyl Ferulate and Eugenol Encapsulated in Chitosan Oleate: Uptake Studies in the Central Nervous System” (Pharmaceutics, 2025):
Where two headings read alike, the source gives them in different places.

What was measured:
[1] = Intravenous administration of Fer-Me to rats (bloodstream and CSF pharmacokinetics); format: in vivo, rat; conditions: rat, in vivo, iv
Description: Charles River laboratories, Calco, Italy) bloodstream and CSF. […] The sample size (4 rats/group) has been chosen based on our previous studies. The experimental procedures were approved by the Italian Ministry of Health and were performed in accordance with the European Communities Council Directive of September 2010 (2010/63/EU). According to the ARRIVE guidelines, all possible efforts were made to minimize animal pain and discomfort and to reduce the number of experimental subjects. Fer-Me solution (2.5 mg/mL final concentration, 15% v/v EtOH content) was prepared by first dissolving Fer-Me in EtOH and then adding this latter solution to a saline solution (0.9% NaCl). […] The aqueous phase was then subjected to a double extraction with 1 mL of H2O-saturated ethyl acetate. […] Data were acquired and processed through CLASS-VP Software; version 7.2.1 (Shimadzu Italia, Milan, Italy). The mobile phase was eluted under isocratic conditions (0.8 mL/min) and was constituted by a mixture of acetic acid in H2O (0.4% v/v) and MeOH, whose ratio was 40:60 (v/v). The UV-Vis detector was set at 320 nm for the detection of Fer-Me, its hydrolysis product Fer, and Caf-Me, which was utilized as an internal standard during blood sample extraction. […] The average recoveries were approximately 40% for Fer and 58% for Fer-Me. For this reason, the concentrations of these compounds were determined by their peak area ratio with respect to the internal standard (Caf-Me). […] Fer-Me in vivo half-life (t1/2) in the rats' bloodstream was determined using nonlinear regression (exponential decay) of concentration values quantified at appropriate time intervals after infusion, further validated by applying linear regression to the semi-logarithmic plot.

[2] = in vivo; conditions: rat; for AUC / Cmax / Tmax: nasal CS-OA NE, Fer-Me 0.4 mg/kg and eugenol 0.8 mg/kg
Description: (§1) Fer-Me and eugenol were nasally co-administered as loaded in CS-OA NE to evaluate their concentration–time profiles in male Sprague-Dawley rats’ (200–250 g body weight; Charles River laboratories, Calco, Italy) bloodstream and CSF. The results were compared with those obtained by the rat intravenous administrations of Fer-Me (10 mg/kg; present study), and 20 mg/kg of eugenol. The sample size (4 rats/group) has been chosen based on our previous studies. The experimental procedures were approved by the Italian Ministry of Health and were performed in accordance with the European Communities Council Directive of September 2010 (2010/63/EU). According to the ARRIVE guidelines, all possible efforts were made to minimize animal pain and discomfort and to reduce the number of experimental subjects.
Fer-Me and eugenol were nasally co-administered to rats at the doses of 0.4 mg/kg (about 0.1 mg/rat) and 0.8 mg/kg (about 0.2 mg/rat), respectively, as encapsulated in CS-OA NE (Fer-Me content about 1 mg/mL; eugenol content about 2 mg/mL). A group of four rats anesthetized and laid on their backs (weighing approximately 250 g) received CS-OA NE after being fasted for 12 h. In particular, each rat received 50 μL of CS-OA NE formulation in each nostril. The nasal administration was carried out using a semiautomatic pipette connected to a short polyethylene tubing, which was inserted about 0.6 to 0.7 cm into each nostril. Following the administration, blood samples (100 μL) were collected at predetermined time points, along with CSF samples (30 μL). The blood samples (n = 4 for timepoint) were immediately mixed with 200 μL of ice-cold CH3CN and then 100 μL of internal standard (100 μM BNZ in CH3CN) was added. These samples were centrifuged at 12,500× g for 5 min. About 300 μL of the supernatant was then withdrawn and centrifuged again. Finally, 10 μL of the resultant sample was analyzed using HPLC for the quantification of Fer-Me and eugenol.
The HPLC apparatus was the same used for the uptake experiments with RPMI 2650 cells (Section 2.3.3). […] Calibration curves of peak areas versus concentration in the range 0.5 to 10 μM for Fer-Me (0.10 to 2.08 μg/mL), and eugenol (0.08 to 1.64 μg/mL), obtained dissolving the compounds in simulated CSF, were linear (n = 8, r ≥ 0.996, p < 0.0001). […] Therefore, the concentrations of these compounds determined in whole blood were referred to as the peak area ratio with respect to the internal standard BNZ. Eight different concentrations in rat whole blood at 4 °C, ranging from 0.5 to 50 μM for Fer-Me (0.10 to 10.41 μg/mL) and eugenol (0.08 to 8.21 μg/mL) were used to generate calibration curves in this biological system, which were linear (n = 8, r ≥ 0.990, p < 0.001).
Fer-Me in vivo half-life (t1/2) in the rats’ bloodstream was determined using nonlinear regression (exponential decay) of concentration values quantified at appropriate time intervals after infusion, further validated by applying linear regression to the semi-logarithmic plot. The area under the concentration–time curves (AUC, μg∙mL^−1∙min) in rat bloodstreams or CSF, following Fer-Me intravenous administration or CA-OA NE nasal administration, were calculated using the trapezoidal method.
Following the nasal administration of CS-OA NE, the absolute bioavailability (F) values of Fer-Me and eugenol were calculated as the ratio of the nasal AUC to the intravenous AUC values measured in the bloodstream, normalized to the respective doses, according to Equation (3):(3) F=AUCnasal/AUCIV·doseIV/dosenasal GraphPad Prism version 7.0 (GraphPad Software, San Diego, CA, USA) was used for all calculations.

[3] = tested on: several cell lines; conditions: cited from earlier work
[4] = male, Sprague-Dawley, rat, in vivo
Description: as §1

[5] = cited from earlier work
[6] = cited from earlier work; remark: listed apart in the source

COC(=O)/C=C/c1ccc(O)c(OC)c1 [Fer-Me, methyl ferulate]
Tmax in CSF [1]: 20 min
kinetic elimination constant (kel) ([1]; 10 mg/kg): 0.069 ± 0.003 min⁻¹
CSF bioavailability (AUC) after nasal CS-OA NE relative to intravenous administration [2]: about 30 times
absolute bioavailability F (bloodstream) [2]: 56%
time at which CSF concentration decreased to zero (permanence in the CSF) [2]: 120 min
time within which plasma concentration decreased to zero [2]: ≤ 90 min
Tmax in CSF ([2]; inhaled or intranasal): 20 min
Tmax in the bloodstream ([2]; inhaled or intranasal): 40 min

C=CCc1ccc(O)c(OC)c1 [eugenol]
concentration known to induce cytotoxicity [3]: 5000 µM
dose-normalized CSF AUC of eugenol relative to Fer-Me [4]: about 16 times
bioavailability ([2]; male, Sprague-Dawley, 0.8 mg/kg, nasal CS-OA NE vs intravenous, dose-normalized, read-out: absolute bioavailability F (bloodstream)): 95%
time at which CSF concentration decreased to zero (permanence in the CSF) ([2]; male, Sprague-Dawley): 120 min
time within which plasma concentration decreased to zero ([2]; male, Sprague-Dawley): ≤ 90 min
AUC ([2]; male, Sprague-Dawley, inhaled or intranasal, 0.8 mg/kg, read-out: AUC in CSF (converted)): 1060 ng·h/mL
AUC ([2]; male, Sprague-Dawley, inhaled or intranasal, 0.8 mg/kg, read-out: AUC in the bloodstream (converted)): 111 ng·h/mL
Cmax ([2]; male, Sprague-Dawley, inhaled or intranasal, 0.8 mg/kg, read-out: Cmax in CSF): 1050 ± 80 ng/mL
Cmax ([2]; male, Sprague-Dawley, inhaled or intranasal, 0.8 mg/kg, read-out: Cmax in the bloodstream): 150 ± 10 ng/mL
Tmax ([2]; male, Sprague-Dawley, inhaled or intranasal, 0.8 mg/kg, read-out: Tmax in CSF (converted)): 20 min
Tmax ([2]; male, Sprague-Dawley, inhaled or intranasal, 0.8 mg/kg, read-out: Tmax in the bloodstream (converted)): 40 min
absolute bioavailability ([5]; eugenol oral administration): about 4%
AUC in CSF ([5]; rat, oral dose of 500 mg/kg of eugenol): 30.97 ± 2.18 µg·min/mL
permanence in the rat CSF ([6]; in vivo): 50 min
AUC in CSF ([6]; rat, eugenol 20 mg/kg i.v.): 56.1 ± 4.2 µg·min/mL
Tmax in CSF ([6]; rat, eugenol 20 mg/kg i.v.): 10 min
t1/2 in the bloodstream ([6]; rat, in vivo, iv, 20 mg/kg): about 20 min
